In patent publication US20250354195A1, “METHOD OF SCREENING” (UNIVERSITY OF DUNDEE, priority 2024, published 2025):

Target: T1, GSK3β (Homo sapiens, UniProt P49841+Q96SW2)
T1 construct: genetically engineered using CRISPR/Cas9 technology to endogenously tag GSK3p protein with HiBiT tag at the C-terminus; host or cells: HEK293 cells, CRISPR/Cas9 knock-in of HiBiT at the endogenous GSK3B locus
Assay: High throughput screening for GSK3β-HiBiT targeted degradation (Nano-Glo HiBiT Lytic luminescence)
Format: cell-based
Details: HEK293 cells with endogenously HiBiT-tagged GSK3β, 24 h incubation, products of one-pot plate array (FIG. 1, Method A); for DC50: 0.01-30 μM, read-out: DC50 (half-maximal degradation concentration)
Experimental: High throughput Screening for GSK3 β-HiBiTL: Test compounds were transferred into Echo plate (Beckman, 001-12782, Echo LDV384) using BRAVO automated liquid handling platform which serves as source plate (10 mM stocks in DMSO). Serial dilutions of the compounds were done using Echo550 liquid handler as 30 μM, 10 μM, 3 μM, 1 μM, 0.3 μM, 0.1 μM, 0.03 μM and 0.01 μM in final concentrations in assay plates. One column of each assay plate was reserved for DMSO control treatments. After compounds were serially diluted in assay plates, HEK293 cells (CRL-1573, ATCC) genetically engineered using CRISPR/Cas9 technology to endogenously tag GSK3p protein with HiBiT tag at the C-terminus (Schwinn et al., 2018, CRISPR-mediated tagging of endogenous proteins with a luminescent peptide, ACS Chem. Biol., 13(2), 467-74) were seeded at a density of 5000 cells/well in 50 μL complete media in 384-well TC-grade white plates (Perkin Elmer, Culturplate, 6007619) with the help of Multidrop Combi liquid dispenser and cells were incubated for 24 h with compounds at 37° C. in humidified incubators with 5% CO2. At the end of the treatment, equal volume of Nano-Glo HiBiT Lytic reagent (Promega N3030) supplied with Nano-Glo HiBiT Lytic substrate and LgBiT Protein were added into each well according to manufacturer's instructions, and cells were incubated on an orbital shaker for 15 seconds and for a further 15 minutes at room temperature. Luminescence signals were measured in an appropriate plate reader (PHERAstar FSX, BMG Labtech) (Dixon et al., 2016, NanoLuc complementation reporter optimized for accurate measurement of protein interactions in cells, ACS Chem. Biol., 11, 400-8). Changes in protein abundance upon compound treatment were further analysed by normalising raw luminescence values to DMSO values and fold changes were plotted using for parameter logistic regression with GraphPad Prism (10.1.2).
Furthermore, the present investigators have shown that bifunctional compounds manufactured using the method of the present disclosure may be effective in the uses of bifunctional compounds, for example as PROTACs in targeted protein degradation (TPD). […] GSK3p was targeted for degradation using a binder for GSK3p, and a binder for CRBN; the binders were comprised in molecules comprising moieties for reacting with the orthogonally reactive moieties of the linker. […] The “identifier” identifies the well of the multi-well plate that has been sampled, e.g., AHD2B-1-A1 relates to the top left well in FIG. 1. The DC50 provides an indication of the potency of the bifunctional compound in targeted degradation; Dmax provides an indication of the maximum possible degradation. The use of these metrics is further described in Flexible Fitting of PROTAC Concentration-Response Curves with Changepoint Gaussian Processes, Semenova et al., SLAS Discovery, 2021, 26, 1212-1224.

T1 sequence (P49841 whole entry): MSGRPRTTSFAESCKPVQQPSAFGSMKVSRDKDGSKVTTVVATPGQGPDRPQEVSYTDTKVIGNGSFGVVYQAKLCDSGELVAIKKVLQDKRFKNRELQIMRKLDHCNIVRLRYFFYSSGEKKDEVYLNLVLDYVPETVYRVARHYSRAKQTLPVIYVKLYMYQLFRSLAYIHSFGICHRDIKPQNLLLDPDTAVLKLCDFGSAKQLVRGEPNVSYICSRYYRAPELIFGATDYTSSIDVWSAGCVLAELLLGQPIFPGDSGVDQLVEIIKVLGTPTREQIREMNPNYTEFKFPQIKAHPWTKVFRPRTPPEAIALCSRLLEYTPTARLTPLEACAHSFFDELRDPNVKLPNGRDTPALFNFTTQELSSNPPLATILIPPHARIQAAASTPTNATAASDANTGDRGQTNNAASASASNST
T1 sequence (Q96SW2 whole entry): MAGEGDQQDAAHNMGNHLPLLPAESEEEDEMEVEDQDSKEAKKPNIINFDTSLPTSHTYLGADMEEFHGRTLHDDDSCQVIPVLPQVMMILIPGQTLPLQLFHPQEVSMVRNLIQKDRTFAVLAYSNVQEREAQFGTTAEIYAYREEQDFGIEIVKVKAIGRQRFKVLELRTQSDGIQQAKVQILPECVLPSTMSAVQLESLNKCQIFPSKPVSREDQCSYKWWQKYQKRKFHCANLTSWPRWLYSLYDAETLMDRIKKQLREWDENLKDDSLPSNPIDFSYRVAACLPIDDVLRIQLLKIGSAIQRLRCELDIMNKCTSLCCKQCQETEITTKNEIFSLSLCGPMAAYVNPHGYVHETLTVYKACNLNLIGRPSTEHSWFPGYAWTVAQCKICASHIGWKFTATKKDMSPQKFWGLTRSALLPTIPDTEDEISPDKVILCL
T1 sequence (Q16531 whole entry partner): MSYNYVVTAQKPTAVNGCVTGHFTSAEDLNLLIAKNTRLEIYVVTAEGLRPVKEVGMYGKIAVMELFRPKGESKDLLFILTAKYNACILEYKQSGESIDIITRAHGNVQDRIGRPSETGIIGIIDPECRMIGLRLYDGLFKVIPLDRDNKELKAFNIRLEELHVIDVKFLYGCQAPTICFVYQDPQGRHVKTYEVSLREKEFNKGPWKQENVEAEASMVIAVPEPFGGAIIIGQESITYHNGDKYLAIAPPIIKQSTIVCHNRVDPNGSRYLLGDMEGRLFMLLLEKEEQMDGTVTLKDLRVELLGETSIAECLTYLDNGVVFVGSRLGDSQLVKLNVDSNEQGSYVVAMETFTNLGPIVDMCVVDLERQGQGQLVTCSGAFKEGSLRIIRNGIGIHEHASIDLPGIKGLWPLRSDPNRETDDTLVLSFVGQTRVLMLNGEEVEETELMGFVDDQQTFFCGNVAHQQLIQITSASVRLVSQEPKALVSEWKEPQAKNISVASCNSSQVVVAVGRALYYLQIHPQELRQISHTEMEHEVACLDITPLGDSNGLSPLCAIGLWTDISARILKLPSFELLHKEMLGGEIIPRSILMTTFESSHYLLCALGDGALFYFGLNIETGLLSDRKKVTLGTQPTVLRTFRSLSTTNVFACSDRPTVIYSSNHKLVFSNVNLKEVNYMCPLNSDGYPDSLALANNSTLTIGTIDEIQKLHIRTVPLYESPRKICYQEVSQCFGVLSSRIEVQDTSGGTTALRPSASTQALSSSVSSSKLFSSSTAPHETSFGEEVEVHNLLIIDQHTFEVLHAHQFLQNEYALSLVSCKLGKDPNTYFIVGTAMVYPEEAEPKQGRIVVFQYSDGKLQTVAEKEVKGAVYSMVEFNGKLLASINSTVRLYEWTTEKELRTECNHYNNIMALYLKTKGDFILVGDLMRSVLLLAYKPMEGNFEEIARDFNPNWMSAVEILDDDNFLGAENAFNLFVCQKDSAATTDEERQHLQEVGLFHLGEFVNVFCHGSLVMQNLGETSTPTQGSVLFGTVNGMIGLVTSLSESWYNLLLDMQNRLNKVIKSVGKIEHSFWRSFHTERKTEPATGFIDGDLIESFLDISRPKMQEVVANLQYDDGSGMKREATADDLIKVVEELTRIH

Row | Structure (SMILES) | DC50 [µM] | Dmax (maximal effect) [%]
1 | COc1ccc(-c2ocnc2C(=O)NCCCn2cc(-c3ccc(CN4CCN(Cc5ccc6c(N7CCC(=O)NC7=O)nn(C)c6c5)CC4)cn3)nn2)cc1Cl [AHD2B-1-D2] | < 0.25 | 63
2 | COc1ccc(-c2ocnc2C(=O)NCCCn2cc(-c3cccc(CN4CCN(Cc5ccc(C(=O)NC6CCC(=O)NC6=O)c(F)c5)CC4)n3)nn2)cc1Cl (stereo not shown) [AHD2B-1-C8] | > 10 | <30
3 | COc1ccc(-c2ocnc2C(=O)NCCCn2cc(COc3ccc(CN4CCC5(C4)CN(CC(=O)N[C@H](C(=O)N4C[C@H](O)C[C@H]4C(=O)NCc4ccc(-c6scnc6C)cc4)C(C)(C)C)C5)cc3)nn2)cc1Cl [AHD2B-1-B6] | > 10 | <30
4 | COc1ccc(-c2ocnc2C(=O)NCCCn2cc(CCCCCN3CCCN(CC(=O)N[C@H](C(=O)N4C[C@H](O)C[C@H]4C(=O)NCc4ccc(-c5scnc5C)cc4)C(C)(C)C)CC3)nn2)cc1Cl [AHD2B-1-B9] | > 10 | <30
5 | COc1ccc(-c2ocnc2C(=O)NCCCn2cc(COC3CCN(CC(=O)N[C@H](C(=O)N4C[C@H](O)C[C@H]4C(=O)NCc4ccc(-c5scnc5C)cc4)C(C)(C)C)CC3)nn2)cc1Cl [AHD2B-1-B5] | > 10 | <30
6 | COc1ccc(-c2ocnc2C(=O)NCCCn2cc(COCCOCCN3CCN(Cc4ccc(C(=O)NC5CCC(=O)NC5=O)c(F)c4)CC3)nn2)cc1Cl (stereo not shown) [AHD2B-1-C10] | > 10 | <30
7 | COc1ccc(-c2ocnc2C(=O)NCCCn2cc(CCCCN3CCN(Cc4ccc5c(N6CCC(=O)NC6=O)nn(C)c5c4)CC3)nn2)cc1Cl [AHD2B-1-D1] | 2.1 | 49
8 | COc1ccc(-c2ocnc2C(=O)NCCCn2cc(COc3ccc(CN4CCN(Cc5ccc(C(=O)NC6CCC(=O)NC6=O)nc5)CC4)cc3)nn2)cc1Cl (stereo not shown) [AHD2B-1-F3] | > 10 | <30
9 | COc1ccc(-c2ocnc2C(=O)NCCCn2cc(-c3ccc(CN4CCN(Cc5cccc(N6CCC(=O)NC6=O)c5)CC4)cn3)nn2)cc1Cl [AHD2B-1-A2] | > 10 | <30
10 | COc1ccc(-c2ocnc2C(=O)NCCCn2cc(COCCOCCN3CCN(Cc4ccc(C(=O)NC5CCC(=O)NC5=O)nc4)CC3)nn2)cc1Cl (stereo not shown) [AHD2B-1-F10] | > 10 | <30
11 | COc1ccc(-c2ocnc2C(=O)NCCCn2cc(COc3ccc(CN4CCN(CC(=O)N[C@H](C(=O)N5C[C@H](O)C[C@H]5C(=O)NCc5ccc(-c6scnc6C)cc5)C(C)(C)C)CC4)cc3)nn2)cc1Cl [AHD2B-1-B3] | > 10 | <30
12 | COc1ccc(-c2ocnc2C(=O)NCCCn2cc(COc3ccc(CN4CCN(Cc5ccc(N6CCC(=O)NC6=O)cc5)CC4)cc3)nn2)cc1Cl [AHD2B-1-G3] | > 10 | <30
13 | COc1ccc(-c2ocnc2C(=O)NCCCn2cc(-c3cccc(CN4CCN(Cc5ccc(C(=O)NC6CCC(=O)NC6=O)nc5)CC4)n3)nn2)cc1Cl (stereo not shown) [AHD2B-1-F8] | > 10 | <30
14 | COc1ccc(-c2ocnc2C(=O)NCCCn2cc(COc3ccc(CN4CCC5(C4)CN(Cc4ccc(C(=O)NC6CCC(=O)NC6=O)c(F)c4)C5)cc3)nn2)cc1Cl (stereo not shown) [AHD2B-1-C6] | 1.6 | 59

The remaining lines, values ahead:

Row | DC50 [µM] | Dmax (maximal effect) [%] | Structure (SMILES)
15 | > 10 | <30 | COc1ccc(-c2ocnc2C(=O)NCCCn2cc(-c3cccc(CN4CCN(Cc5ccc(N6CCC(=O)NC6=O)cc5)CC4)n3)nn2)cc1Cl [AHD2B-1-G8]
16 | < 0.25 | 53 | COc1ccc(-c2ocnc2C(=O)NCCCn2cc(CCCOc3ccc(CN4CCN(Cc5ccc(C(=O)NC6CCC(=O)NC6=O)c(F)c5)CC4)cc3)nn2)cc1Cl (stereo not shown) [AHD2B-1-C4]
17 | > 10 | <30 | COc1ccc(-c2ocnc2C(=O)NCCCn2cc(CCCCN3CCN(Cc4ccc(C(=O)NC5CCC(=O)NC5=O)nc4)CC3)nn2)cc1Cl (stereo not shown) [AHD2B-1-F1]
18 | > 10 | <30 | COc1ccc(-c2ocnc2C(=O)NCCCn2cc(CCCCN3CCN(CC(=O)N[C@H](C(=O)N4C[C@H](O)C[C@H]4C(=O)NCc4ccc(-c5scnc5C)cc4)C(C)(C)C)CC3)nn2)cc1Cl [AHD2B-1-B1]
19 | > 10 | <30 | COc1ccc(-c2ocnc2C(=O)NCCCn2cc(CCCCN3CCN(Cc4ccc(N5CCC(=O)NC5=O)cc4)CC3)nn2)cc1Cl [AHD2B-1-G1]
20 | > 10 | <30 | COc1ccc(-c2ocnc2C(=O)NCCCn2cc(COc3ccc(CN4CCN(Cc5cccc(N6CCC(=O)NC6=O)c5)CC4)cc3)nn2)cc1Cl [AHD2B-1-A3]
21 | > 10 | <30 | COc1ccc(-c2ocnc2C(=O)NCCCn2cc(CCCOc3ccc(CN4CCN(Cc5cccc(N6CCC(=O)NC6=O)c5)CC4)cc3)nn2)cc1Cl [AHD2B-1-A4]
22 | > 10 | <30 | COc1ccc(-c2ocnc2C(=O)NCCCn2cc(COc3ccc(CN4CCC5(C4)CN(Cc4cccc(N6CCC(=O)NC6=O)c4)C5)cc3)nn2)cc1Cl [AHD2B-1-A6]
23 | > 10 | <30 | COc1ccc(-c2ocnc2C(=O)NCCCn2cc(COC3CCN(Cc4ccc(C(=O)NC5CCC(=O)NC5=O)nc4)CC3)nn2)cc1Cl (stereo not shown) [AHD2B-1-F5]
